Legend:
[1] = tested on: carcinogen induced mammary tumors; assay: Carcinogen induced mammary tumors in Sprague Dawley rats; assay type: in vivo, rat; conditions: combination treatment with tamoxifen (800 μg/kg) compared to tamoxifen alone
Procedure: Procedure: Five week-old female Sprague Dawley rats (Harlan) were housed in a fixed 12-12-hr artificial light-dark cycle, and maintained on a standard rodent diet provided ad libitum. Animals were allowed two days to acclimate in this experimental environment prior to the initiation of the study.
To induce mammary tumors, the female […] were injected intraperitoneally with the carcinogen n-nitroso-n-methylurea, in a single dose of 50 mg/kg in acidified normal saline (pH4 w/acetic acid) at a final volume of 10 mg/ml (5 ml/kg). After eight weeks, mammary tumors are detected, and the tumor bearing females are sorted into treatment groups. Once sorted, the animals were housed four per cage and provided rodent diet ad libitum. All animals are treated with test compound or a vehicle for four weeks, during which time, changes in tumor size are monitored. Tumors were classified as regressing, static or progressing.
Treatment groups (n=8/group): • 1) Control (sesame oil) • 2) Tamoxifen (800 μg/kg) • 3) Compound 1 (10 mg/kg) • 4) Compound 1 (20 mg/kg) • 5) Compound 1 (50 mg/kg) • 6) Compound 1 (100 mg/kg) • 7) Compound 1 (20 mg/kg)+Tamox. (800 μg/kg) • 8) Compound 9 (75 mg/kg) • 9) Compound 11 (20 mg/kg) • 10) Compound 11 (20 mg/kg)+Tamox. (800 μg/kg) • 11) Compound 11 (50 mg/kg) […]

[2] = tested on: THP-1 cells differentiated into macrophages (macrophage foam cells); assay: Cholesterol efflux assay from macrophage foam cells; assay type: cell-based; conditions: 1 μM final concentration, 10 μg/ml ApoA-I, 24 hr, vs non treated cells
Procedure: Cholesterol efflux from macrophage foam cells was assayed as described by Sparrow. et al, J. Biol. Chem., 2002, 277, 10021-10027, which is incorporated herein in its entirety by this reference. THP-1 cells obtained from ATCC (Manassas, VI), were cultured in RPMI medium (Sigma, St-Louis, Mo.), containing 10% fetal calf serum (Sigma, St-Louis, Mo.), […] 2-mercaptoethanol, 1 mM sodium pyruvate, 2 mM L-glutamine, 100 units/ml penicillin, […] streptomycin and 0.25 μg/ml amphotericin B obtained from Sigma (St-Louis, Mo.). The THP-1 cells were differentiated into macrophages in 24 well tissue culture dishes at a density of 0.5 million cells/well by incubation in the same medium plus 100 nM tetradecanoyl phorbol acetate (Sigma, St-Louis, Mo.), for 3 days.
After differentiation into macrophages, the cells were tested for cholesterol efflux as induced by Compound 11 of the invention. Cells were labeled by incubation for 24 hr in fresh growth medium containing [3H]-cholesterol (10 μCi/ml) (PerkinElmer, Boston, Mass.), and 50 μg/ml acetylated-LDL (Frederick, Md.) and 1% Fetal bovine serum (Sigma, St-Louis, Mo.). […] Media were briefly centrifuged to remove non-adherent cells, and then aliquots of both the supernatant and the dissolved cells were counted by liquid scintillation spectrometry to determine radioactivity.

3T3-L1 pre-adipocytes = conditions: comparative compound, stated as already shown; cited from earlier work

With `Cc1cc2c(cc1-c1cc(/C=C3\SC(=O)NC3=O)ccc1OC(F)(F)F)C(C(C)C)=CCC2(C)C` [Compound 1, 5[3-(8-Isopropyl-3,5,5-trimethyl-5,6-dihydro-naphthalen-2-yl)-4-trifluoromethoxy-benzylidene]-thiazolidine-2,4-dione] the “effect on mammary tumors in combination with tamoxifen” value [1] was “unexpectedly improved and/or synergistic effects”.
With `COc1c(F)cc(/C=C2\SC(=O)NC2=O)c(F)c1-c1cc2c(cc1C)C(C)(C)OCC2(C)C` [Compound 11, 5-[2,5-Difluoro-4-methoxy-3-(1,1,4,4,7-pentamethyl-isochroman-6-yl)-benzylidene]-thiazolidine-2,4-dione] the cholesterol efflux [2] was “effective for inducing cholesterol efflux” and the cholesterol efflux ([2]; listed as compound 11) was “increases cholesterol efflux”.
In the case of `Cc1cc2c(cc1-c1cc(/C=C3\SC(=O)NC3=O)ccc1OC(F)(F)F)C(C)(C)CCC2(C)C` [Compound 41, 5-[3-(3,5,5,8,8-Pentamethyl-5,6,7,8-tetrahydro-naphthalen-2-yl)-4-trifluoromethoxy-benzylidene]-thiazolidine-2,4-dione], the “inducer of adipocyte differentiation” value (3T3-L1 pre-adipocytes) is listed as “potent inducer of adipocyte differentiation”.

— patent US20050038098A1, “Substituted dihydronaphthalene and isochroman compounds for the treatment of metabolic disorders, cancer and other diseases” (priority 2003, published 2005)
